# Measurements taken from a melting point compilation (Tetko et al.; mined from patent text by program, amines drawn as free bases though some values may be those of a salt).
row,Compound,melting point
1,CCOC(=O)c1c(C)nc2ccc(NCCCN3CCC(OC(c4ccccc4)c4ccccc4)CC3)nn12,117 to 119 °C
2,NC(=O)C1=NN(c2cccc(COc3ccccc3)c2)C(c2ccccc2)N1 (stereo unspecified),177 to 178 °C
3,CCN(CC)c1ccc2nc3c4ccccc4c(=Nc4ncc(Cl)cc4Cl)cc-3oc2c1,192 to 193 °C
4,Cc1nc2sc(S(N)(=O)=O)cc2c(=O)n1-c1ccccc1Cl,251 °C
5,CC(C)(C)OC(=O)NCc1cccc(C2CCN(C(=O)c3ccc(C#Cc4ccccc4F)o3)CC2)c1,111 to 113 °C
6,CCCCCCCCCCOc1ccc(O)c2ccccc12,89 to 90 °C
7,COC1C=C(C)C(=O)CC(C)(C)C1OC(=O)c1ccc(N)cc1 (stereo unspecified),138 to 161 °C
8,CCCn1cc2c(C3C(=O)Nc4ccc(Br)cc43)nc(NCCCN3CCOCC3)nc2n1 (stereo unspecified),298 to 303 °C
9,CCOC(=O)c1cn(-c2cc(NC(=O)OC(C)(C)C)c(F)cc2F)c2c(C)c(F)c(F)c([N+](=O)[O-])c2c1=O,188 to 189 °C
10,CCCCCCCCc1cc2c(s1)NC(=O)CN=C2c1ccccc1Cl,131 to 133 °C
11,CCCCN1CCC(n2c(=O)[nH]c3ccc(Br)cc32)CC1,179 to 181 °C
12,O=C(Nc1ccc(Cl)c(Cl)c1)NS(=O)(=O)c1ccccc1,194 to 195 °C
13,Cc1ccc(O)c2c1N(Cc1ccccc1)C(=O)C2(C)C,128 to 129 °C
14,CCOC(=O)CC1CCC(CCNS(=O)(=O)c2ccc(Br)cc2)CC1 (stereo unspecified),62 °C
15,CSc1ccc(C=CC(=O)c2cccc(Br)c2)cc1,148 °C
16,CCOC(=O)C1=C(COCc2nnn[nH]2)NC(C)=C(C(=O)OC)C1c1ccccc1Cl (stereo unspecified),122 to 124 °C
17,CC(C)(C)OC(=O)NCC1CC(ON2C(=O)c3ccccc3C2=O)C1 (stereo unspecified),145 to 150 °C
18,COc1cccc(C(=O)N(C(=O)OCI)N(C(=O)c2cc(C)cc(C)c2)C(C)(C)C)c1C,70 to 72 °C
19,CN(CC(=O)O)C(=O)C=Cc1ccccc1,177 to 179 °C
20,CC(C)C[C@@H](CO)NC(=O)[C@H](Cc1c[nH]cn1)NC(=O)[C@H](CSSc1ncccc1[N+](=O)[O-])NC(=O)OC(C)(C)C,185 to 188 °C
21,CCOc1cc(OC)c(/C=C/C(=O)c2ccc(C(=O)O)cc2)cc1-c1cccs1,210 to 212 °C
22,NCC1Cc2cc(Cl)cc(-c3ccc(F)c(F)c3)c2O1 (stereo unspecified),> 250 °C
23,NC(=O)c1c(F)ccc([N+](=O)[O-])c1F,134 to 135 °C

row,Compound,melting point
1,COC(=O)c1cc(OC)c(O)cc1-c1c(C(=O)OC)ccc2c1OCO2,172 to 173 °C
2,CC(C(=O)O)c1ccc(C(=O)c2ccc(Br)o2)cc1 (stereo unspecified),108 to 110 °C
3,CCCCCCCNC(=O)Nc1ccccc1C(=O)NCCCC1CCN(C(c2ccccc2)c2ccccc2)C1 (stereo unspecified),109 to 111 °C
4,Nc1cccc(NC(=O)C(=O)C(=O)O)c1,246 °C
5,O=c1[nH]c2ccc3c(c2o1)OC(CN1CC=C(c2c[nH]c4ccccc24)CC1)CO3 (stereo unspecified),202 °C
6,COc1c(N2CCC(C(O)CO)CC2)c(F)cc2c(=O)c(C(=O)O)cn(C3CC3)c12 (stereo unspecified),200 to 204 °C
7,CCCCc1nc2c(N)nc3ccc(OCc4ccccc4)cc3c2n1CCCCNS(C)(=O)=O,178 to 182 °C
8,O=C(Nc1ccc(CN2C(=O)C=C(CCO)Sc3ccccc32)cc1)c1ccccc1-c1ccccc1,116 to 120 °C
9,CN1C(=S)N(c2ccc(C#N)c(C(F)(F)F)c2)C(=O)C1(CF)CF,122 to 123 °C
10,CCOC(=O)C(c1ccncc1)C(c1ccccc1)c1ccc(OC)c(OC2CCCC2)c1 (stereo unspecified),165 to 166 °C
11,O=C(Nc1nn(-c2ccccc2)cc1C(=O)O)OCc1cc2cc(-c3ccccc3)ccc2o1,221 °C
12,N#CC(N=Nc1cc(S(=O)(=O)O)ccc1OC(=O)c1ccccc1)=C(OC(=O)c1ccccc1)c1ccccc1,193 to 195 °C
13,C=CCC1(O)CCC2C3CCC4=CC(=O)CCC4C3CCC21Cc1cccc(N(C)C)c1 (stereo unspecified),142 °C
14,CC(C)(O)c1ccc(C2CCNCC2)c(F)c1,151 °C
15,CC(C)(C)c1cc(OCCCCCCC(=O)O)cc(C(C)(C)C)c1,88 to 90 °C
16,Cc1c[nH]c(-c2cnn(-c3c(Cl)cc(C(F)(F)F)cc3Cl)n2)n1,217 to 218 °C
17,Cc1ccc2cc(C(=O)O)oc2c1C,235 to 237 °C
18,Cc1c(C)c2c(c(C)c1O)CC[C@](C)(C(=O)N[C@H]1CCOC1=O)O2,195 to 196 °C
19,CC(C)c1cccc(CCC(O)CC2CCCCC2)c1NC(=O)CC1c2ccccc2Oc2ccccc21 (stereo unspecified),148 °C
20,COC(=O)CCc1cc2c(s1)-n1c(C)nnc1C(C)N=C2c1ccccc1Cl (stereo unspecified),131 to 132 °C
21,CCOC(=O)c1cc2cccc(N(C)S(=O)(=O)c3nccn3C)c2[nH]1,120 °C
22,CN(C)C(=S)Oc1ccc(CC#N)cc1,120 to 124 °C

# Other lines, results leading:
row,melting point,Compound
1,177 °C,COC(=O)c1ccccc1S(=O)(=O)N(c1ccn(-c2nc(C)cc(C)n2)n1)S(=O)(=O)c1ccccc1C(=O)OC
2,120 °C,CCn1c(N)c(-c2ncc[nH]2)c(=O)c2ccc(-c3ccc(CC(=O)NCc4ccncc4)nc3)nc21
3,206 to 210 °C,NS(=O)(=O)c1cc(CCNC(=O)c2cnc3ccccc3c2)ccc1OCCOCC(F)(F)F
4,133 to 135 °C,O=C(Nc1ccc(-n2nc(C(F)(F)F)cc2C(F)(F)F)cc1)c1ccccc1C(F)(F)F
5,119 to 120 °C,N[C@@H](Cc1cccc(OC(F)(F)C(F)F)c1)[C@H](O)c1ccnc(F)c1 (racemic)
6,292 to 293 °C,CCCc1nn(C)c2c(=O)[nH]c(Cc3ccc(C(=O)O)cc3)nc12
7,156 to 157 °C,Cc1oc(-c2ccc(F)cc2)nc1COc1cccc(CN(O)C(N)=O)c1
8,126 to 128 °C,COc1cc(OC)cc(-c2nc[nH]c2-c2ccc(OC)c(O)c2F)c1
9,227 °C,CN1CCN(c2ccc(Nc3ncc4ccc(-c5ccc(S(C)(=O)=O)cc5)n4n3)cc2F)CC1
10,150 to 151 °C,CCS(=O)(=O)c1ccc(Oc2ccc(Cl)c(Cl)c2)nc1C#N
11,109 to 110 °C,CC(=O)Cc1ccc(-c2noc3cc(Cl)ccc23)cc1
12,275 to 277 °C,Cc1ccc(-c2cn3c(n2)sc2cc(O)ccc23)cc1
13,195 to 197 °C,CCOC(=O)c1ccccc1-n1c(CCl)nc2ccc(Cl)cc2c1=O
14,150 to 155 °C,COC(=O)c1ccc(Cn2cnc3c(Cl)nc(N)nc32)cc1
15,218 to 219 °C,COC(=O)c1ccc(-c2nnc(-c3ccc(C(F)(F)F)cc3)s2)cc1
16,164 to 166 °C,CC(C)(C)c1ccc(C(=O)NCc2ccc3c(c2)C(=O)N(C2CCC(=O)NC2=O)C3=O)cc1 (stereo unspecified)
17,116 to 118 °C,CN(CCCCOCC(=O)O)c1cnc(-c2ccc(F)cc2)c(-c2ccc(F)cc2)n1
18,178 to 180 °C,O=C(Cc1cccc(OC(F)(F)F)c1)NCc1cccc2c1C(=O)N(C1CCC(=O)NC1=O)C2=O (stereo unspecified)
19,136 to 137 °C,CCOC(=O)c1cc(=O)c2ccc(OCCCCCOc3ccc(C(C)=O)c(O)c3)cc2o1
20,205 to 207 °C,COc1ccc(NC(=O)NCc2cccc3c2C(=O)N(C2CCC(=O)NC2=O)C3=O)cc1 (stereo unspecified)
21,78 to 80 °C,CC(=O)Oc1c(Cl)c(C)nc(C)c1-c1ccc(Oc2ccc(OC(F)(F)F)cc2)cc1
